Key:
Bel-7402 [1] = experiment: Percentage of growth inhibition of BEL-7402 cells treated for 48 hr at 10E-3 M/L and incubated with 5 g/L MTT for 4 h.; type: functional; details: for inhibition: Homo sapiens
HXO-RB44 cell line [2] = experiment: Percentage of growth inhibition of HXO-RB44 cells treated for 48 hr at 10E-6 M/L and incubated with 5 g/L MTT for 4 h.; type: functional; details: for inhibition: Homo sapiens
Bel-7402 [3] = experiment: Percentage of growth inhibition of BEL-7402 cells treated for 48 hr at 10E-5 M/L and incubated with 5 g/L MTT for 4 h.; type: functional, cell-based; details: Homo sapiens
Bel-7402 [4] = experiment: Percentage of growth inhibition of BEL-7402 cells treated for 48 hr at 10E-4 M/L and incubated with 5 g/L MTT for 4 h.; type: functional; details: for inhibition: Homo sapiens
HXO-RB44 cell line [5] = experiment: Percentage of growth inhibition of HXO-RB44 cells treated for 48 hr at 10E-4 M/L and incubated with 5 g/L MTT for 4 h.; type: functional; details: for inhibition: Homo sapiens
HXO-RB44 cell line [6] = experiment: Percentage of growth inhibition of HXO-RB44 cells treated for 48 hr at 10E-5 M/L and incubated with 5 g/L MTT for 4 h.; type: functional; details: for inhibition: Homo sapiens

COPPER
inhibition (Bel-7402 [1]): 81% | inhibition (HXO-RB44 cell line [2]): 0% | inhibition (Bel-7402 [3]): 2% | inhibition (Bel-7402 [4]): 3% | inhibition (HXO-RB44 cell line [5]): 5% | inhibition (HXO-RB44 cell line [6]): 3%

OC1CNCCNCCNC1
Inhibition (Bel-7402 [1]): 34% | Inhibition (HXO-RB44 cell line [2]): 1% | Inhibition (Bel-7402 [4]): 16% | Inhibition (HXO-RB44 cell line [5]): 3% | Inhibition (HXO-RB44 cell line [6]): 3%

COBALT (II) ION
inhibition (Bel-7402 [1]): 79% | inhibition (HXO-RB44 cell line [2]): 3% | inhibition (Bel-7402 [3]): 0% | inhibition (Bel-7402 [4]): 5% | inhibition (HXO-RB44 cell line [5]): 7% | inhibition (HXO-RB44 cell line [6]): 3%

Source: ChEMBL document CHEMBL1147515, “Nickel(II) and cobalt(II) complexes of hydroxyl-substituted triazamacrocyclic ligand as potential antitumor agents” (2004)
